The structures appear in SMILES notation.

Results on 19 compounds are retold here after US9062071B2, “Substituted piperidines as HDM2 inhibitors” (Merck Sharp & Dohme Corp, priority 2011, dated 2015).

The assay addresses HDM2 protein (Homo sapiens, UniProt Q00987). As to the kind of experiment: fluorescence polarization screening assay (FP IC50). In kind it is binding. The settings on record: class symbols. The method, then:
The compounds were evaluated to determine activity at the HDM2 protein by known methods such as the fluorescence polarization screening assay that measures the inhibitory concentration that achieves 50% of maximal activity (FP IC50) and the dissociation constant for inhibitor binding (FP Ki). [Zhang et al., J. Analytical Biochemistry 331: 138-146 (2004)].
In general terms: In fluorescence polarisation assays a small probe gives low polarisation when free and higher when bound to something large.

Chain of HDM2 protein (Q00987 whole entry): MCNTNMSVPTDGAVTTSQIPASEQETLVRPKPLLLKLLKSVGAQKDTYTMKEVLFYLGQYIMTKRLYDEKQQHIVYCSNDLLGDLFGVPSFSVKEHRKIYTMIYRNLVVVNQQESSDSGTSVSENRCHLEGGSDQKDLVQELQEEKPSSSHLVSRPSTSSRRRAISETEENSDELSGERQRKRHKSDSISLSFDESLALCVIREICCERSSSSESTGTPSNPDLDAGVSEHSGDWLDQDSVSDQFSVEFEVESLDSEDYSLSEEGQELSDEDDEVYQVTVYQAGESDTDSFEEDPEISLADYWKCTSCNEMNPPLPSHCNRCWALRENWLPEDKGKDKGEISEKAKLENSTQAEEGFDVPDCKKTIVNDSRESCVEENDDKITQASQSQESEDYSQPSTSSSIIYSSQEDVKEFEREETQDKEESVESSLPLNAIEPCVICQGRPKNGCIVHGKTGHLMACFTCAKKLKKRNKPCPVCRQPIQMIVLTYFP

A word on the IC50: it is the point on the concentration scale where inhibition reaches its midpoint. Higher therefore signals weaker potency in that assay. `CCC[C@H]1N(C(=O)c2ncccc2C(F)(F)F)CCC[C@@]1(Oc1csc(C(F)(F)F)c1)C(=O)N1Cc2ccc(F)cc2C[C@@H]1CC(=O)O` [Compound A144, [(3R)-6-fluoro-2-{[(2R,3S)-2-propyl-1-{[3-(trifluoromethyl)pyridin-2-yl]carbonyl}-3-{[5-(trifluoromethyl)thiophen-3-yl]oxy}piperidin-3-yl]carbonyl}-1,2,3,4-tetrahydroisoquinolin-3-yl]acetic acid] had an IC50 of 1 to 100 nM.

On to `CCC[C@H]1N(C(=O)c2ncccc2C(F)(F)F)CCC[C@@]1(Oc1csc(C(F)(F)F)c1)C(=O)N1Cc2ccc(F)cc2C[C@@H]1CCCCC(=O)O` [Compound A131, 5-[(3S)-6-fluoro-2-{[(2R,3S)-2-propyl-1-{[3-(trifluoromethyl)pyridin-2-yl]carbonyl}-3-{[5-(trifluoromethyl)thiophen-3-yl]oxy}piperidin-3-yl]carbonyl}-1,2,3,4-tetrahydroisoquinolin-3-yl]pentanoic acid], for which the IC50 was in the range of 1 to 100 nM.

As to `CCC[C@H]1N(C(=O)c2ncccc2C(F)(F)F)CCC[C@@]1(Oc1csc(C(F)(F)F)c1)C(=O)N1CCc2cc(Cl)ccc2C1CC(C(=O)O)C(C)C` (stereo partly drawn) [Compound A180, 2-[(6-chloro-2-{[(2R,3S)-2-propyl-1-{[3-(trifluoromethyl)pyridin-2-yl]carbonyl}-3-{[5-(trifluoromethyl)thiophen-3-yl]oxy}piperidin-3-yl]carbonyl}-1,2,3,4-tetrahydroisoquinolin-1-yl)methyl]-3-methylbutanoic acid], the concentration for half-maximal inhibition (IC50) was 101 to 20000 nM.

Take `CCC[C@H]1N(C(=O)c2ncccc2C(F)(F)F)CCC[C@@]1(Oc1csc(C(F)(F)F)c1)C(=O)N1CCc2sc(Cl)cc2C1CCC(N)=O` (stereo partly drawn) [Compound A24, 3-(2-chloro-5-{[(2R,3S)-2-propyl-1-{[3-(trifluoromethyl)pyridin-2-yl]carbonyl}-3-{[5-(trifluoromethyl)thiophen-3-yl]oxy}piperidin-3-yl]carbonyl}-4,5,6,7-tetrahydrothieno[3,2-c]pyridin-4-yl]propanamide]: the IC50 was in the range of 101 to 20000 nM.

In the case of `CCC[C@H]1N(C(=O)c2ncccc2C(F)(F)F)CCC[C@@]1(Oc1csc(C(F)(F)F)c1)C(=O)N1Cc2ccc(F)cc2C[C@H]1C(=O)O` [Compound A125, (3S)-6-fluoro-2-{[(2R,3S)-2-propyl-1-{[3-(trifluoromethyl)pyridin-2-yl]carbonyl}-3-{[5-(trifluoromethyl)thiophen-3-yl]oxy}piperidin-3-yl]carbonyl}-1,2,3,4-tetrahydroisoquinoline-3-carboxylic acid], the concentration for half-maximal inhibition (IC50) was 1 to 100 nM.

In turn, `COCCN1CCN(CC[C@H]2N(C(=O)c3ncccc3C(F)(F)F)CCC[C@@]2(Oc2csc(C(F)(F)F)c2)C(=O)N2CCc3cc(Cl)ccc3C2COC)CC1` (stereo partly drawn) [Compound A21, 6-chloro-2-{[(2R,3S)-2-{2-[4-(2-methoxyethyl)piperazin-1-yl]ethyl}-1-{[3-(trifluoromethyl)pyridin-2-yl]carbonyl}-3-{[5-(trifluoromethyl)thiophen-3-yl]oxy}piperidin-3-yl]carbonyl}-1-(methoxymethyl)-1,2,3,4-tetrahydroisoquinoline] yielded a half-maximal inhibitory concentration (IC50) of 1 to 100 nM.

Take `CCC[C@H]1N(C(=O)c2ncccc2C(F)(F)F)CCC[C@@]1(Oc1csc(C(F)(F)F)c1)C(=O)N1CCc2cc(Cl)ccc2C1C(N)=O` (stereo partly drawn) [Compound A75, 6-chloro-2-{[(2R,3S)-2-propyl-1-{[3-(trifluoromethyl)pyridin-2-yl]carbonyl}-3-{[5-(trifluoromethyl)thiophen-3-yl]oxy}piperidin-3-yl]carbonyl}-1,2,3,4-tetrahydroisoquinoline-1-carboxamide]: the IC50 lay in the range of 1 to 100 nM.

Regarding `CCC[C@H]1N(C(=O)c2ncccc2C(F)(F)F)CCC[C@@]1(Oc1csc(C(F)(F)F)c1)C(=O)N1Cc2cc(F)ccc2C[C@H]1CCC(=O)O` [Compound A147, 3-[(3R)-7-fluoro-2-{[(2R,3S)-2-propyl-1-{[3-(trifluoromethyl)pyridin-2-yl]carbonyl}-3-{[5-(trifluoromethyl)thiophen-3-yl]oxy}piperidin-3-yl]carbonyl}-1,2,3,4-tetrahydroisoquinolin-3-yl]propanoic acid], the IC50 was 1 to 100 nM.

For the compound `CCCC1N(C(=O)c2ncccc2C(F)(F)F)CCCC1(Oc1ccc(OC(F)(F)F)cc1)C(=O)N1CCc2cc(F)ccc2C1` (stereo not shown) [Compound A110, 6-fluoro-2-[(2-propyl-3-[4-(trifluoromethoxy)phenoxy]-1-{[3-(trifluoromethyl)pyridin-2-yl]carbonyl}piperidin-3-yl)carbonyl]-1,2,3,4-tetrahydroisoquinoline], the IC50 was 101 to 20000 nM.

For `CCC[C@H]1N(C(=O)c2ncccc2C(F)(F)F)CCC[C@@]1(Oc1csc(C(F)(F)F)c1)C(=O)N1Cc2ccc(F)cc2C[C@@H]1C(=O)O` [Compound A123, (3R)-6-fluoro-2-{[(2R,3S)-2-propyl-1-{[3-(trifluoromethyl)pyridin-2-yl]carbonyl}-3-{[5-(trifluoromethyl)thiophen-3-yl]oxy}piperidin-3-yl]carbonyl}-1,2,3,4-tetrahydroisoquinoline-3-carboxylic acid], the IC50 was 1 to 100 nM.

With `CCC[C@H]1N(C(=O)c2ncccc2C(F)(F)F)CCC[C@@]1(Oc1csc(C(F)(F)F)c1)C(=O)N1Cc2ccc(Cl)cc2C[C@@H]1CCCN1CCC[C@H]1COC` [Compound A156, (3S)-6-chloro-3-{3-[(2S)-2-(methoxymethyl)pyrrolidin-1-yl]propyl}-2-{[(2R,3S)-2-propyl-1-{[3-(trifluoromethyl)pyridin-2-yl]carbonyl}-3-{[5-(trifluoromethyl)thiophen-3-yl]oxy}piperidin-3-yl]carbonyl}-1,2,3,4-tetrahydroisoquinoline], the IC50 was 1 to 100 nM.

Compound `CCC[C@H]1N(C(=O)c2ncccc2C(F)(F)F)CCC[C@@]1(Oc1csc(C(F)(F)F)c1)C(=O)N1Cc2ccc(Cl)cc2C[C@@H]1C(C)CC(=O)O` (stereo partly drawn) [Compound A133, 3-[(3R)-6-chloro-2-{[(2R,3S)-2-propyl-1-{[3-(trifluoromethyl)pyridin-2-yl]carbonyl}-3-{[5-(trifluoromethyl)thiophen-3-yl]oxy}piperidin-3-yl]carbonyl}-1,2,3,4-tetrahydroisoquinolin-3-yl]butanoic acid] had a half-maximal inhibitory concentration (IC50) of 1 to 100 nM.

The compound `CCC[C@H]1N(C(=O)c2ncccc2C(F)(F)F)CCC[C@@]1(Oc1csc(C(F)(F)F)c1)C(=O)N1CCc2cc(Cl)ccc2C1CC(C(=O)O)C(C)C` (stereo partly drawn) [Compound A178, 2-[(6-chloro-2-{[(2R,3S)-2-propyl-1-{[3-(trifluoromethyl)pyridin-2-yl]carbonyl}-3-{[5-(trifluoromethyl)thiophen-3-yl]oxy}piperidin-3-yl]carbonyl}-1,2,3,4-tetrahydroisoquinolin-1-yl)methyl]-3-methylbutanoic acid] showed an IC50 of 1 to 100 nM.

For `CCC[C@H]1N(C(=O)c2ncccc2C(F)(F)F)CCC[C@@]1(Oc1csc(C(F)(F)F)c1)C(=O)N1CCc2cc(Cl)ccc2C1(CCO)C(N)=O` (stereo partly drawn) [Compound A109, 6-chloro-1-(2-hydroxyethyl)-2-{[(2R,3S)-2-propyl-1-{[3-(trifluoromethyl)pyridin-2-yl]carbonyl}-3-{[5-(trifluoromethyl)thiophen-3-yl]oxy}piperidin-3-yl]carbonyl}-1,2,3,4-tetrahydroisoquinoline-1-carboxamide], the IC50 lay in the range of 1 to 100 nM.

As for `CCC[C@H]1N(C(=O)c2ncccc2C(F)(F)F)CCC[C@@]1(Oc1csc(C(F)(F)F)c1)C(=O)N1CCc2cc(Cl)ccc2[C@@H]1CCC(=O)NC#N` [Compound A80, 3-[(1S)-6-chloro-2-{[(2R,3S)-2-propyl-1-{[3-(trifluoromethyl)pyridin-2-yl]carbonyl}-3-{[5-(trifluoromethyl)thiophen-3-yl]oxy}piperidin-3-yl]carbonyl}-1,2,3,4-tetrahydroisoquinolin-1-yl]-N-cyanopropanamide], the IC50 lay in the range of 1 to 100 nM.

For `NC(=O)C1c2ccc(Cl)cc2CCN1C(=O)[C@]1(Oc2csc(C(F)(F)F)c2)CCCN(C(=O)c2ncccc2C(F)(F)F)[C@@H]1CC(=O)O` (stereo partly drawn) [Compound A95, [(2R,3S)-3-[(1-carbamoyl-6-chloro-3,4-dihydroisoquinolin-2(1H)-yl)carbonyl]-1-{[3-(trifluoromethyl)pyridin-2-yl]carbonyl}-3-{[5-(trifluoromethyl)thiophen-3-yl]oxy}piperidin-2-yl]acetic acid], the IC50 is 1 to 100 nM.

As for `CCC[C@H]1N(C(=O)c2ncccc2C(F)(F)F)CCC[C@@]1(Oc1csc(C(F)(F)F)c1)C(=O)N1Cc2cc(F)ccc2C[C@@H]1CCC(=O)O` [Compound A132, 3-[(3S)-7-fluoro-2-{[(2R,3S)-2-propyl-1-{[3-(trifluoromethyl)pyridin-2-yl]carbonyl}-3-{[5-(trifluoromethyl)thiophen-3-yl]oxy}piperidin-3-yl]carbonyl}-1,2,3,4-tetrahydroisoquinolin-3-yl]propanoic acid], the IC50 was in the range of 1 to 100 nM.

In the case of `O=C(c1cnccc1C(F)(F)F)N1CCC[C@@](Oc2csc(C(F)(F)F)c2)(C(=O)N2CCc3cc(Cl)ccc3C2)[C@H]1CCN1CCOCC1` [Compound A4, 6-chloro-2-{[(2R,3S)-2-(2-morpholin-4-ylethyl)-1-{[4-(trifluoromethyl)pyridin-3-yl]carbonyl}-3-{[5-(trifluoromethyl)thiophen-3-yl]oxy}piperidin-3-yl]carbonyl}-1,2,3,4-tetrahydroisoquinoline], the IC50 lay within 1 to 100 nM.

In turn, `CCC[C@H]1N(C(=O)c2ncccc2C(F)(F)F)CCC[C@@]1(Oc1csc(C(F)(F)F)c1)C(=O)N1CCc2cc(Cl)ccc2C1` [Compound A49, 6-chloro-2-{[(2R,3S)-2-propyl-1-{[3-(trifluoromethyl)pyridin-2-yl]carbonyl}-3-{[5-(trifluoromethyl)thiophen-3-yl]oxy}piperidin-3-yl]carbonyl}-1,2,3,4-tetrahydroisoquinoline] yielded an IC50 of 1 to 100 nM.
